Patent US11160770B2, “Compounds, compositions and methods for treating oxidative DNA damage disorders” (Indiana University Research and Technology Corporation, priority 2011, dated 2021)

Key:
Format in all cases: cell-based, rat
DRG cells = test: CGRP release from DRG cells following cisplatin treatment; details: E3330 20 μM pretreatment 3 days, then cisplatin 10 μM 24 hours
Protocol: EXAMPLE. CGRP. Release studies were performed on cells. Briefly, neuronal cultures were washed once with HEPES buffer consisting of 25 HEPES, 135 NaCl, 3.5 KCl, 2.5 CaCl2, 1 MgCl2, 3.3 d-glucose (each in mmol/L), and 0.1% bovine serum albumin (pH 7.4), maintained at 37° C., and then incubated for successive 10-min intervals with 0.4 mL of the same buffer in the absence or presence of drugs. Basal or resting release was determined by exposing the cells to HEPES buffer alone, whereas stimulated release was determined by exposing the cultures to 30 nmol/L capsaicin. Cells then were reexposed to HEPES buffer without drugs for one or two 10-min incubations to reestablish resting release. During incubations, the cells were maintained in at 37° C. After each incubation, the buffer was removed to measure the amount of CGRP using RIAs. […] Total content is determined by adding the total amount released in all incubations to the amount remaining in the cells. The release data is calculated as a percentage of the total peptide content in the cells. Because CGRP was measured by RIA, results are expressed as CGRP-like immunoreactivity (iCGRP). […]
EXAMPLE. […] Basal levels of CGRP without induction and cumulative total basal are both monitored, indicating correct functioning of the assay.

[1] = test system: cisplatin treated neuronal cells; test: Trypan blue cell survival following cisplatin treatment; details: E3330 20 μM; cisplatin 0-100 mM; trypan blue on days 11, 12, 13
From the text: (§1) EXAMPLE. Assay Methods. Sensory neuronal cultures grown on Lab-Tek microscope chamber slides were processed for immunofluorescence as previously published using a peripherin antibody (1:500) and HA antibody (1:500)[28]. Images were collected in red (peripherin), green (HA), and bright-field modes. A Zeiss LSM offline browser (R4.0: Carl Zeiss Inc.; Thornwood, N.Y.) was used to determine co-localization of peripherin and HA. For trypan blue exculsion, equal volume of 0.4% (w/v) Trypan blue to cell suspension were combined, mixed and scored under phase contrast microscope. Dead cells were those that take up the trypan blue and stain blue, whereas the live cells have yellow nuclei.
Referring to FIG. 2, cells were harvested on day 1. The corresponding siRNA (100 nM) was added on day 3, and removed on day 5. E3330 (20 μM) was dosed on day 7 and remained in the cultures for 2 days. E3330 (20 μM) and/or cisplatin ([…]) are each dosed day 10 with fresh media. Trypan blue assay is performed on days 11, 12, and 13. CGRP release assay is performed on day 11. N=3, *p<0.05.

[2] = test system: sensory neuronal cultures
Protocol: EXAMPLE. Cell Cultures. Neuronal cultures were prepared from adult male (150-175 g) Sprague-Dawley rats (Harlan, Indianapolis, Ind.) as described in the published literature. Briefly, hippocampal cells were dissociated using papain and mechanical agitation and separated by gradient centrifugation. The pellet of cells from a discontinuous gradient of Optiprep in L-15 media was washed then resuspended in 1 mL of growth media consisting of Neurobasal Medium supplemented with 0.5 mM L-glutamine, 2% B-27 Supplement minus AO, 50 mg/mL Penicillin-Streptomycin, and 5 ng/mL of Basic Fibroblast Growth Factor (BFGF). Approximately 60,000 cells were plated onto poly-D-lysine and laminin coated plates and grown for 6-14 days in 5% CO2 at 37° C. Growth medium was changed every other day. For sensory neuronal culture, cells were dissociated using collagenase and mechanical dissociation. Approximately 30,000 DRG cells were plated into each well of 12 well culture plates or onto Lab-Tek chamber slides all precoated with poly-D-lysine and laminin. The sensory neurons were maintained in F-12 media supplemented with 10% horse serum, 2 mM glutamine, 100 μg/mL normocin, 50 μg/mL penicillin, 50 μg/mL streptomycin, 50 μM 5-fluoro-2′-deoxyuridine, 150 μM uridine, and 30 ng/mL NGF in 3% CO2 at 37° C. Growth medium was changed every other day and the cells were used after 11-13 days of culture.
as §1, with “Dead cells were those that take up the trypan blue and stain blue, whereas the live cells have yellow nuclei.” left out
EXAMPLE. […] The mean % of cells surviving 24 h after exposure to IR as measured by trypan blue exclusion was evaluated. […]

Q: How did the “total content CGRP” value (DRG cells; FIG. 3(B)) turn out when `CCCCCCCCC/C(=C\C1=C(C)C(=O)C(OC)=C(OC)C1=O)C(=O)O` [Example 28] was run?
A: no statistical significance difference

Q: What about the “capsaicin-induced CGRP release from DRG cells after cisplatin” value (DRG cells; capsaicin 30 nM) of the same compound?
A: recovery of CGRP release

Q: And the “cell death in cisplatin treated neuronal cells” value [1]?
A: attenuate cell death

Q: What about the “cell viability (effect on IR-induced cell death)” value ([2]; 20 μM E3330, 3 days prior to and throughout 3 days of radiation (10 Gy/day), 24 h after last dose) of the same compound?
A: effectively blocks IR's effects

Q: What about the cell viability ([2]; male, Sprague-Dawley, rat, 20 μM) of the same compound?
A: 51±3%

Q: What about the “cell viability (% cells surviving, trypan blue exclusion)” value ([2]; male, Sprague-Dawley, rat, 6 days, 10 μM) of the same compound?
A: 81±3%
